Test system: regional myocardial ischemia and reperfusion
Experiment: Rat model of regional myocardial ischemia and reperfusion (LAD-occlusion)
Assay type: in vivo, Male Wistar rats
Conditions: LAD-occlusion 25 min, reperfusion 2 h, bolus 10 mg/kg + infusion 96. mg/kg/h from 30 min before occlusion, mean±SEM, n=12
Protocol: The aim of this study was to investigate whether ranolazine exerts beneficial effects in a rat model of regional myocardial ischemia and reperfusion. Methods: Male Wistar rats were subjected to no LAD-occlusion (sham) or LAD-occlusion (25 min) and reperfusion (2 h). Saline (bolus: 2.4 mL/kg+infusion: 24. mL/kg/h) or ranolazine (bolus: 10 mg/kg +infusion; 96. mg/kg/h) were infused 30 min before LAD-occlusion and throughout the experiment. At the end of the experiment area at risk (AR, % of left ventricle), infarct size (IS, % of AR), and plasma cardiac troponin T (cTnT, ng/mL) were determined. The following groups were studied: Group 1. sham saline (n=4), Group 2. saline control (n=12), Group 3. ranolazine (n=12).

In the case of `COc1ccccc1OCC(O)CN1CCN(CC(=O)Nc2c(C)cccc2C)CC1` (racemic) [Ranolazine, (±)-N-(2,6-dimethylphenyl)-4-[2-hydroxy-3-(2-methoxyphenoxy)propyl]-1-piperazine-acetamide], the “area at risk (AR)” value is reported as 48±1 % of left ventricle, the “infarct size (IS)” value is reported as 41±4 % of AR and the “plasma cardiac troponin T (cTnT)” value is reported as 12 ± 2 ng/mL.

From patent US20020052377A1, “Method for treating angina” (priority 2000, published 2002)
